Ki data for 29 compounds are collected here from patent US20050209278A1, “Piperidinyl- and piperazinyl-sulfonylmethyl hydroxamic acids and their use as protease inhibitors” (priority 2002, published 2005).

Counter-ions that a name gives are not always drawn. Like-named read-outs stand apart in the source and are kept apart here. Where only a bound is given, the exact number is not on record here.

One test addresses T1, MMP-13 (Homo sapiens, UniProt P45452).
T1 construct: made in house; host or cells: baculovirus / insect cells
In words: In vitro MMP inhibition, Ki determination (fluorogenic substrate II). The class given is biochemical. The method, boiled down:
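Ki determined with human recombinant MMP-13, baculovirus-expressed as proenzyme and activated with APMA. Fluorogenic MCA/Dpa substrate II at 4 μM (at or below Km) with low enzyme in Tris buffer pH 7.5 with CaCl2. Incubation was 1 h at room temperature, with fluorescence read at 330/420 nm.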

The target of another test is T2, MMP-14 (Homo sapiens, UniProt P50281).
T2 construct: The catalytic domain enzyme was expressed in E. coli inclusion bodies, solubilized in urea; made in house
Described as above. The class given is biochemical. The procedure:
Several hydroxamic acids and salts thereof were analyzed in in vitro assays to determine their ability to inhibit the MMP cleavage of peptide substrates. […] and IC50 constants were calculated from the assayed hydroxamic acid-MMP interactions.
Human recombinant MMP-1, MMP-2, MMP-9, MMP-13, and MMP-14 were used in this assay. All enzymes were prepared in Assignee's laboratories following usual laboratory procedures. Protocols for the preparation and use of these enzymes are available in the scientific literature. See, e.g., Enzyme Nomenclature (Academic Press, San Diego, Calif., 1992) (and the citations therein). See also, Freije et al., “Molecular cloning and expression of collagenase-3, a novel human matrix metalloproteinase produced by breast carcinomas,” J Biol. Chem., 269(24), 16766-16773 (1994).
The MMP-14 full length cDNA was provided by Dr. Gregory Goldberg of Washington University (St. Louis, Mo.). The catalytic domain enzyme was expressed in E. coli inclusion bodies, solubilized in urea, purified on a preparative […] reverse phase HPLC column, and then refolded in the presence of zinc acetate and purified for use.
All MMPs were activated using 4-aminophenylmercuric acetate (“APMA”, Sigma Chemical, St. Louis, Mo.) or trypsin. MMP-9 also was activated using human recombinant MMP-3 (purified in Assignee's laboratory following standard cloning and purification techniques).
Two fluorogenic, methoxycoumarin-containing polypeptide substrates were used in the MMP inhibition assays: [drawing 427] Here, “Dpa” is 3-(2,4-dinitrophenyl)-L-2,3-diaminopropionyl group, and “MCA” is 7-methoxycoumarin-4-yl acetyl. Substrate (I) was purchased from Baychem (Redwood City, Calif.), and substrate II was prepared Assignee's laboratory. Substrate I was used in the IC50 determination assays, while substrate II was used in the Ki determination assays. In the absence of MMP inhibitory activity, either substrate is cleaved at the Gly-Leu peptide bond. This cleavage separates the highly fluorogenic peptide from the 2,4-dinitrophenyl quencher, thus resulting in increase of fluorescent intensity.
The stock solutions of the assayed hydroxamic acids (or salts thereof) were prepared in 1% dimethyl sulfoxide (DMSO). These stock solutions were diluted in Buffer A (100 mM Tris-HCl, 100 mM NaCl, 10 mM CaCl2, 0.05% polyoxyethylene 23 lauryl ether, pH 7.5) to obtain solutions with different hydroxamic acid concentrations, i.e., assay solutions with different concentrations of the assayed MMP inhibitory compound. The experiment controls contained the same amount of Buffer A/DMSO as the assayed sample, but contained no hydroxamic acid (or salt thereof).
The assays from which the Ki determinations were made were performed as follows. The assayed hydroxamic acid samples were incubated in separate wells of untreated white polystyrene plates (Nunc Nalgene International, Rochester, N.Y.), and analyzed on a Tecan SpectraFlour Plus plate reader. The excitation wavelength was 330 nm, and the emission wavelength—420 nm. All samples (assayed hydroxamic acids and controls) were incubated in separate plate wells at room temperature for 1 hr in the presence of 4 μM of MMP substrate (II). In the absence of MMP inhibitory activity, substrate II was cleaved at the Gly-Leu bond resulting in an increase of relative fluorescence. Inhibition was observed as a reduced rate of this increase in relative fluorescence. The various hydroxamic acids were analyzed using a single low enzyme concentration with a single substrate concentration fixed at or below the Km. This protocol is a modification of method by Knight et al., FEBS Lett., 296(3), 263-266 (1992). Apparent inhibitory constants were determined by non-linear regression of reaction velocity as a function of inhibitor and enzyme concentration using Morrison's equation, as described by Kuzmic, Anal. Biochem. 286, 45-50 (2000).

Setting [1] is: value not in parenthesis, read-out: MMP-13 Ki.
[2] abbreviates: value not in parenthesis, read-out: MMP-14 Ki.
Where [3] appears, read: human recombinant enzyme, 4 μM substrate II, room temperature, 1 hr, read-out: MMP-13 Ki.
Where [4] appears, read: human recombinant enzyme (catalytic domain), 4 μM substrate II, room temperature, 1 hr, read-out: MMP-14 Ki.

Broadly, the Ki is a measure of affinity in units of concentration, obtained from inhibition or displacement. For `CCCCOc1ccc(N2CCN(S(=O)(=O)C3(C(=O)NO)CCN(C(=O)OCCF)CC3)CC2)cc1` [Example 113], the figures for the Ki on MMP-13 (setting [1]) and on MMP-14 (setting [2]) were 0.25 nM and 2330 nM, respectively.

Turning to `O=C(NO)C1(S(=O)(=O)N2CCN(c3ccc(OCCCC(F)(F)F)cc3)CC2)CCN(c2cnccn2)CC1` [Example 112], the Ki on MMP-13 (setting [1]) was 0.27 nM; on MMP-14 (setting [2]), 1170 nM.

Regarding `O=C(NO)C1(S(=O)(=O)N2CCN(c3ccc(OCCCC(F)(F)F)cc3)CC2)CCN(C2CC2)CC1` [Example 153], the Ki at MMP-13 (setting [1]) came out at 0.099 nM; on MMP-14 (setting [2]) it was 6770 nM.

`O=C(NO)C1(S(=O)(=O)N2CCC(c3ccc(CCC(F)(F)C(F)(F)F)cc3)CC2)CCOCC1` [Example 18, N-hydroxy-4-({4-[4-(3,3,4,4,4-pentafluorobutyl)phenyl]piperidin-1-yl}sulfonyl)tetrahydro-2H-pyran-4-carboxamide]: the Ki was determined as 0.444 nM at MMP-13 (setting [3]) and 1770 nM on MMP-14 (setting [4]).

With `CCCCCc1ccc(N2CCN(S(=O)(=O)C3(C(=O)NO)CCN(c4ccc(C)cc4)CC3)CC2)cc1` [Example 147], the Ki on MMP-13 (setting [1]) was 7.35 nM; on MMP-14 (setting [2]), over 10000 nM.

As to `CCCCOc1ccc(N2CCN(S(=O)(=O)C3(C(=O)NO)CCN(C(=O)OCCOC)CC3)CC2)cc1` [Example 141], the Ki at MMP-13 (setting [1]) was 0.151 nM; on MMP-14 (setting [2]) it was 1140 nM.

Take `O=C(NO)C1(S(=O)(=O)N2CCN(c3ccc(OCC4CC4)c(F)c3)CC2)CCN(C2CC2)CC1` [Example 10, 1-cyclopropyl-4-[[4-[4-(cyclopropylmethoxy)-3-fluorophenyl]-1-piperazinyl]sulfonyl]-N-hydroxy-4-piperidinecarboxamide, dihydrochloride]: the Ki at MMP-13 (setting [3]) is 3.88 nM; on MMP-14 (setting [4]) it was 4340 nM.

`CCCCOc1ccc(N2CCN(S(=O)(=O)C3(C(=O)NO)CCOCC3)CC2)cc1` [Example 145]: the values for the Ki at MMP-13 (setting [1]) and at MMP-14 (setting [2]) were 0.347 nM and 2350 nM, respectively.

`O=C(NO)C1(S(=O)(=O)N2CCN(c3ccc(OCC(F)(F)F)cc3)CC2)CCOCC1` [Example 2, N-hydroxy-4-({4-[4-(2,2,2-trifluoroethoxy)phenyl]piperazin-1-yl}sulfonyl)tetrahydro-2H-pyran-4-carboxamide Hydrochloride]: the inhibition constant Ki turned out to be 0.77 nM on MMP-13 (setting [3]) and 1940 nM at MMP-14 (setting [4]).

Take `CCCCOc1ccc(N2CCN(S(=O)(=O)C3(C(=O)NO)CCN(CCOC)CC3)CC2)cc1F` [Example 11, 4-[[4-(4-butoxy-3-fluorophenyl)-1-piperazinyl]sulfonyl]-N-hydroxy-1-(2-methoxyethyl)-4-piperidinecarboxamide, Dihydrochloride]: the Ki amounted to 0.67 nM on MMP-13 (setting [3]) and 3600 nM on MMP-14 (setting [4]).

As to `CCCCCc1ccc(C2CCN(S(=O)(=O)C3(C(=O)NO)CCN(CCOC)CC3)CC2)cc1` [Example 15, N-hydroxy-1-(2-methoxyethyl)-4-{[4-(4-pentylpheyl)piperidin-1-yl]sulfonyl}piperidine-4-carboxamide Hydrochloride], the Ki came out at 0.23 nM at MMP-13 (setting [3]) and 2960 nM at MMP-14 (setting [4]).

With `CC(C)CCOc1ccc(N2CCN(S(=O)(=O)C3(C(=O)NO)CCN(C4CC4)CC3)CC2)cc1` [Example 128], the Ki turned out to be 0.211 nM at MMP-13 (setting [1]) and 5380 nM at MMP-14 (setting [2]).

For `CCOc1ccc(N2CCN(S(=O)(=O)C3(C(=O)NO)CCOCC3)CC2)cc1` [Example 3, 4-{[4-(4-ethoxyphenyl)piperazinyl]sulfonyl}perhydro-2H-pyran-4-carbohydroxamic Acid], the Ki on MMP-13 (setting [3]) worked out at 1.46 nM; at MMP-14 (setting [4]), 1260 nM.

For `CCCCOc1ccc(N2CCN(S(=O)(=O)C3(C(=O)NO)CCN(c4ncc(CC)cn4)CC3)CC2)cc1` [Example 155], the Ki on MMP-13 (setting [1]) was found to be 3.36 nM; on MMP-14 (setting [2]) it was 5350 nM.

In the case of `CCCCc1cnc(N2CCN(S(=O)(=O)C3(C(=O)NO)CCOCC3)CC2)cn1` [Example 1, 4-{[4-(5-butylpyrazin-2-yl)piperazin-1-yl]sulfonyl}-N-hydroxytetrahydro-2H-pyran-4-carboxamide Dihydrochloride], the Ki on MMP-13 (MMP-13 Ki, human recombinant enzyme, 4 μM substrate II, room temperature, 1 hr) was 1.82 nM; at MMP-14 (setting [4]), 4290 nM.

Consider `CCCCCc1ccc(N2CCN(S(=O)(=O)C3(C(=O)NO)CCN(CCOC)CC3)CC2)cc1F` [Example 13, 4-{[4-(3-fluoro-4-pentylphenyl)piperazin-1-yl]sulfonyl}-N-hydroxy-1-(2-methoxyethyl)piperidine-4-carboxamide Dihydrochloride], for which the figures for the Ki on MMP-13 (setting [3]) and on MMP-14 (setting [4]) were 0.61 nM and 3520 nM, respectively.

`CCCCc1ccc(C2CCN(S(=O)(=O)C3(C(=O)NO)CCN(C4CC4)CC3)CC2)nc1` [Example 24, 4-{[4-(5-butylpyridin-2-yl)piperidin-1-yl]sulfonyl}-1-cyclopropyl-N-hydroxypiperidine-4-carboxamide Hydrochloride]: the Ki worked out at 0.54 nM on MMP-13 (setting [3]) and 2900 nM at MMP-14 (setting [4]).

Regarding `COCCN1CCC(C(=O)NO)(S(=O)(=O)N2CCN(c3ccc(OCCCC(F)(F)F)cc3F)CC2)CC1` [Example 102], the results for the Ki on MMP-13 (setting [1]) and on MMP-14 (setting [2]) were 0.19 nM and 7130 nM, respectively.

Turning to `O=C(NO)C1(S(=O)(=O)N2CCN(c3ncccn3)CC2)CCOCC1` [Example 107], the Ki on MMP-13 (setting [1]) came to 22.4 nM; at MMP-14 (setting [2]), 6000 nM.

Take `O=C(NO)C1(S(=O)(=O)N2CCN(c3ncc(Br)cn3)CC2)CCOCC1` [Example 104]: the Ki amounted to 3.55 nM on MMP-13 (setting [1]) and 305 nM on MMP-14 (setting [2]).

`CCCCCc1cnc(N2CCN(S(=O)(=O)C3(C(=O)NO)CCOCC3)CC2)s1` [Example 56]: the Ki on MMP-13 (setting [1]) was 1.74 nM; at MMP-14 (setting [2]) it was 795 nM.

For the compound `CCCCOc1ccc(N2CCN(S(=O)(=O)C3(C(=O)NO)CCN(C(=O)c4cc5ccccc5o4)CC3)CC2)cc1` [Example 127], the Ki was 6.18 nM at MMP-13 (setting [1]) and over 10000 nM on MMP-14 (setting [2]).

For `O=C1c2ccccc2C(=O)N1CCCCc1ccc(N2CCN(S(=O)(=O)C3(C(=O)NO)CCOCC3)CC2)nc1` [Example 132], the Ki amounted to 0.395 nM at MMP-13 (setting [1]) and 158 nM on MMP-14 (setting [2]).

For the compound `CCCCOc1ccc(N2CCN(S(=O)(=O)C3(C(=O)NO)CCN(c4nc5ccccc5o4)CC3)CC2)cc1` [Example 150], the values for the Ki at MMP-13 (setting [1]) and on MMP-14 (setting [2]) were 11.2 nM and 8650 nM, respectively.

`CCCCOc1ccc(N2CCN(S(=O)(=O)C3(C(=O)NO)CCN(C(=O)NCCOC)CC3)CC2)cc1` [Example 118]: the figures for the Ki on MMP-13 (setting [1]) and on MMP-14 (setting [2]) were 0.43 nM and 2600 nM, respectively.

As to `CCCCCc1ccc(N2CCN(S(=O)(=O)C3(C(=O)NO)CCN(CC)CC3)CC2)cc1F` [Example 22, 1-ethyl-4-{[4-(3-fluoro-4-pentylphenyl)piperazin-1-yl]sulfonyl}-N-hydroxypiperidine-4-carboxamine Hydrochloride], the Ki on MMP-13 (setting [3]) was determined as 2.78 nM; at MMP-14 (setting [4]), 9320 nM.

Consider `Cc1ccc(N2CCN(S(=O)(=O)C3(C(=O)NO)CCOCC3)CC2)nc1` [Example 138], for which the figures for the Ki at MMP-13 (setting [1]) and at MMP-14 (setting [2]) were 1.15 nM and 66.6 nM, respectively.

Regarding `O=C(NO)C1(S(=O)(=O)N2CCN(c3ccc(COCC(F)(F)C(F)(F)C(F)(F)F)cc3)CC2)CCOCC1` [Example 69], the Ki is 2.11 nM on MMP-13 (MMP-13 Ki, value not in parenthesis) and over 10000 nM on MMP-14 (MMP-14 Ki, value not in parenthesis).

Consider `O=C(NO)C1(S(=O)(=O)N2CCC(c3cnc(OCC(F)(F)C(F)(F)F)cn3)CC2)CCOCC1` [Example 27], for which the values for the Ki on MMP-13 (setting [3]) and at MMP-14 (setting [4]) were 0.5 nM and 6200 nM, respectively.
